Experimental findings from US20260042754A1, “Substituted Bicyclic Heteroaryl Sulfonamide Derivatives for the Treatment of Cancer” (NODUS ONCOLOGY LIMITED, priority 2022, published 2026) are described below.

Test [1] deals with Recombinant His-tagged human PARG protein (Homo sapiens (Human), UniProt Q86W56). Briefly: PARG enzymatic assay (TFMU-ADPr fluorescence). Type of test: biochemical. The settings on record: 1 nM enzyme, 200 μM TFMU-ADPr, read after 30 minutes. How it is done: Inhibition of PARG enzymatic activity by compounds was determined as follows: Recombinant His-tagged human PARG protein expressed in Sf21 insect cells (Adipogen AG, #40T-0022) was aliquoted and stored at −80° C. until use. The artificial enzyme substrate 4-(trifluoromethyl)umbelliferone (TFMU)-ADPr was prepared essentially as described (Drown B S et al, Cell Chemical Biology 2018) and stored at −20° C. as 10 mM stock solutions in DMSO (dimethyl sulfoxide) until use. For reactions, typical final concentration of the enzyme was 1 nM and of the TFMU-ADPr 200 μM. Reactions were carried out in black 384-well low volume round bottom assay plates (Corning, #4514) in a final volume of 10 μL. To this end, PARG was diluted to 1.67 nM in reaction buffer (50 mM K2HPO4, 50 mM KCl, 10 mM β-mercaptoethanol, pH 7.4) and 6 μL were dispensed per assay well using a multichannel pipette. Then compound was dispensed into each well using an Echo dispenser (BeckmanCoulter) to yield the pre-specified final concentration of the range of concentrations to be tested (typically 8-point serial concentrations ranging from either from 0.01 to 10 μM, or from 0.001 to 1 μM, or from 0.0001 to 0.1 μM), and being volume-corrected with 100% DMSO (0.5% final DMSO concentration in reaction mixtures). Plates were mixed, and after 15 minutes 4 μL TFMU-ADPr was added into each well using a multichannel pipette followed by brief mixing. Fluorescence intensity signals were then measured after 30 minutes on an EnVision microplate reader (PerkinElmer) using 380/10 nm and 535/25 nm filters for the excitation and emission, respectively (gain: 150). The assay window was set using DMSO control (top) and a control containing no PARG enzyme (bottom). Delta values were plotted as concentration-response curves fitted to a sigmoidal 4-parameter logistic model to calculate IC50 values (Scigilian Analyze).

The target of test [2] is human PARG (PARG-NanoLuc fusion in HEK293T cells) (Homo sapiens (Human), UniProt Q86W56). Briefly: PARG NanoBRET-based cellular target engagement assay. The test is classed as cell-based. The settings on record: HEK293T cells transfected with PARG-NanoLuc, NanoBRET probe 0.89 μM, 2 hours; read-out: PARG TE IC50. How it is done: PARG Nano-luciferase construct: The PARG-NanoLuc® fusion vector was generated by Promega, by inserting the full length human PARG cDNA sequence encoding the 976 amino acid protein (Gene ID: 8505, UniProt: Q86W56) into the pNLF1-C [CMV/Hygro] vector (C-terminal fusions with NanoLuc® enzyme).
PARG target engagement tracer synthesis: The NanoBRET tracer for PARG was prepared following a previously reported general tracer synthesis procedure.
PARG Probe Displacement Assay Using NanoBRET: HEK293T (DSMZ #ACC 635) cells transiently transfected with the PARG-NanoLuc fusion construct were resuspended in phenol red-free OptiMEM (Gibco #11058-021) to a concentration of 2.4×10^5 cells/mL. 9 μL per well were then added to a white 384-well low volume microplate (Greiner #784080) and incubated for 24 hours under standard growth conditions.
Then compound was dispensed into each well using an Echo dispenser (BeckmanCoulter) to yield the pre-specified final concentration of the range of concentrations to be tested (typically 8-point serial concentrations ranging from either from 0.01 to 10 μM, or from 0.001 to 1 μM, or from 0.0001 to 0.1 μM), and being volume-corrected with 100% DMSO (0.5% final DMSO concentration in reaction mixtures).
After mixing and an incubation at room temperature for 15 min 1 μl of the NanoBRET probe (at 0.89 μM final concentration) was added to the microplate using a multichannel pipette. The plate was mixed and incubated in a 5% CO2 environment at 37° C. for 2 hours, and then 5 μL per well of a solution consisting of a 1:31.25 dilution of Nano-Glo substrate (Promega) and a 1:500 dilution of NanoLuc extracellular inhibitor (Promega) in phenol red-free OptiMEM was added to each well followed by another mixing step. Filtered luminescence was measured on an EnVision plate reader (PerkinElmer) equipped with a 460 nm filter (donor) and a 645 nm filter (acceptor). BRET ratios were plotted as concentration-response curves fitted to a sigmoidal 4-parameter logistic model to calculate IC50 values (Scigilian Analyze).
(BRET reads energy transfer from a luciferase to a nearby fluorophore.)

Test [3] has as its system RMUG-S. Description: Modified cell proliferation assay (CellTiter-Glo), RMUG-S, Examples 12-44. Type of test: cell-based. The settings on record: Examples 12-44: modified protocol, 384-well, 300 cells per well, 120 h; highest concentration tested 9000 nM; read-out: RMUG-S GI50 (high PARG dependency). How it is done:
(§1) The cell proliferation assay protocol was modified and used for RMUG-S for Examples 12-44, and subsequently used to test Examples 1-44 in the NCI-H1650 cell line.
(§2) NCI-H1650 (ATCC, #CRL-5883) or RMUG-S were seeded on day 1 at 300 cells per well in a 384-well plate (Greiner, #781080) that assure assay linearity and optimal signal intensity in 25 μL of RPMI1640 media (Pan Biotech, #P04-22100) containing 10% FCS (Capricorn, #FBS-11A; Lot. CP22-5141) and 1% Glutamine (Pan Biotech, #P04-80100). After incubation for 24 h in humidified chambers at 37° C./5% CO2, compounds/DMSO were dispensed at different concentrations using an Echo 520 (Beckman Coulter). Cells were further incubated for 120 h at 37° C. and 5% CO2. Cells treated with the compound vehicle DMSO were used as negative controls and cells treated with 10 μM Staurosporine (LC Laboratories, #S-9300) served as positive controls.
(§3) At day 6 the CellTiter Glo Reagent was prepared according to the instructions of the kit (Promega Inc.): Reagent was mixed 1:1 with cell culture medium. Thereon, mixture and assay plates were equilibrated at room temperature for 20 min. Equal volumes of the reagent-medium-mixture were added to the volume of culture medium present in each well. The plates were mixed at […] for 2 minutes on an orbital shaker (Timix5, Edmund Buehler GmbH). The microplates were then incubated at room temperature for 10 minutes for stabilization of the luminescent signal. Following incubation, the luminescence was recorded on a Victor X5 microplate reader (Perkin Elmer) using a 200 ms integration time. The data was then analyzed with Excel using the XLFIT Plugin (dose response Fit 205) for determination of the concentration necessary for half-maximal inhibition (i.e. the inflection point of the fitted curve).
(§4) As quality control the Z′-factor was calculated from 16 positive and negative control values. Only assay results showing a Z′-factor≥0.5 were used for further analysis.
A general note: ATP-based viability assays read luminescence as a measure of living cells.

For test [4], the system named is NCI-H1650. Description: Modified cell proliferation assay (CellTiter-Glo), NCI-H1650. Type of test: cell-based. The settings on record: Homo sapiens, NCI-H1650; modified protocol, 384-well, 300 cells per well, 120 h; highest concentration tested 30000 nM; read-out: NCI-H1650 GI50 (high PARG dependency). How it is done: as §1, §2, §3, §4

Sequence of human PARG (PARG-NanoLuc fusion in HEK293T cells) (Q86W56 whole entry, the tested form may be a part): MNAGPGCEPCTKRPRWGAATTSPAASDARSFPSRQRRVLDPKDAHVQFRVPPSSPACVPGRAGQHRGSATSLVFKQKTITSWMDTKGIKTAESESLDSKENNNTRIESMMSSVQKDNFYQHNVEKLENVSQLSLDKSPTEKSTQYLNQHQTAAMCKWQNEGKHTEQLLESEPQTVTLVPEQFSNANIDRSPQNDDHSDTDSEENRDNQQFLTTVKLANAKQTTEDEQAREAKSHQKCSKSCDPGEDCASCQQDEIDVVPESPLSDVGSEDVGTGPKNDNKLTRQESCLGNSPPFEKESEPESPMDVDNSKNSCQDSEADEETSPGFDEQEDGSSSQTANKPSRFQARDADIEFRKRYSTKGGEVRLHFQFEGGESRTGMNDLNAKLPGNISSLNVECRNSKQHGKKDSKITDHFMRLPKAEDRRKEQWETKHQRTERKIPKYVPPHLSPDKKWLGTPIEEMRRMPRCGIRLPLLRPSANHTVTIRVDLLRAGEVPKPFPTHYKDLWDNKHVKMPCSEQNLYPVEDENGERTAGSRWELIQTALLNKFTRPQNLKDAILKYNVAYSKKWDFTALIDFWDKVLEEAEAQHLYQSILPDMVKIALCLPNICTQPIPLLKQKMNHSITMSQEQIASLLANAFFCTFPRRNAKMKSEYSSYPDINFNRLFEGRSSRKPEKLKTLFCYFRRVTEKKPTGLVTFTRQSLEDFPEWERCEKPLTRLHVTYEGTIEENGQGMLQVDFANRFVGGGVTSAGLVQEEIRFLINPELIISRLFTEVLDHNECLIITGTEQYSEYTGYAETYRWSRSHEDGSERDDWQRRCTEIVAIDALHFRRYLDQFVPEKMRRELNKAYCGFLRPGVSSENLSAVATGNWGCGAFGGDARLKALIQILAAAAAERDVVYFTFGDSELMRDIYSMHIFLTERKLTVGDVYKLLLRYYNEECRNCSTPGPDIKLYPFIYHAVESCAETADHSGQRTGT
Sequence of Recombinant His-tagged human PARG protein (Q86W56 whole entry): as the sequence (Q86W56 whole entry, the tested form may be a part) above

Regarding `CO/N=c1\[nH]c2c(N3CCN(C)[C@H](C)C3)cc(S(=O)(=O)NC3(C)CC3)cc2c(=O)n1Cc1cnn(C)c1` [Example 21, (2E)-2-methoxyimino-N-(1-methylcyclopropyl)-3-[(1-methylpyrazol-4-yl)methyl]-4-oxo-8-[(3R)-3,4-dimethylpiperazin-1-yl]-1H-quinazoline-6-sulfonamide], the IC50 in test [1] was less than 30 nM; in test [2], 30 to 99 nM. The GI50 in test [3] and in test [4] was 500 to 2000 nM throughout.
As to `CO/N=c1\[nH]c2c(C3CCN[C@H](C)C3)cc(S(=O)(=O)NC3(C)CC3)cc2c(=O)n1Cc1cnn(C)c1` (stereo partly drawn) [Example 24, (2E)-2-methoxyimino-N-(1-methylcyclopropyl)-3-[(1-methylpyrazol-4-yl)methyl]-4-oxo-8-[(2R)-2-methyl-4-piperidyl]-1H-quinazoline-6-sulfonamide], the IC50 is less than 30 nM in test [1] and 100 to 1000 nM in test [2]. The GI50 in test [3] was 2000 to 9000 nM; in test [4], more than 2000 nM.
As for `CO/N=c1\[nH]c2c(C3CCN(C)[C@H](C)C3)cc(S(=O)(=O)NC3(C)CC3)cc2c(=O)n1Cc1cnn(C)c1` (stereo partly drawn) [Example 25, (2E)-2-methoxyimino-N-(1-methylcyclopropyl)-3-[(1-methylpyrazol-4-yl)methyl]-4-oxo-8-[(2R)-1,2-dimethyl-4-piperidyl]-1H-quinazoline-6-sulfonamide], the half-inhibitory concentration (IC50) in test [1] is less than 30 nM; in test [2] it was 30 to 99 nM. The concentration for 50% growth inhibition (GI50) in test [3] and in test [4] was 500 to 2000 nM in each case.
On to `CO/N=c1\[nH]c2c(N3CCN(C(=O)C(C)C)[C@H](C)C3)cc(S(=O)(=O)NC3(C)CC3)cc2c(=O)n1Cc1cnn(C)c1` [Example 35, (R,E)-8-(4-isobutyryl-3-methylpiperazin-1-yl)-2-(methoxyimino)-3-((1-methyl-1H-pyrazol-4-yl)methyl)-N-(1-methylcyclopropyl)-4-oxo-1,2,3,4-tetrahydroquinazoline-6-sulfonamide], for which the IC50 in test [1] and in test [2] was less than 30 nM in each case. Moreover, the GI50 in test [4] was less than 500 nM.
Turning to `CO/N=c1\[nH]c2c(N3CCN(C(=O)N4CCC(F)(F)C4)[C@H](C)C3)cc(S(=O)(=O)NC3(C)CC3)cc2c(=O)n1Cc1cnn(C)c1` [Example 36, (R,E)-8-(4-(3,3-difluoropyrrolidine-1-carbonyl)-3-methylpiperazin-1-yl)-2-(methoxyimino)-3-((1-methyl-1H-pyrazol-4-yl)methyl)-N-(1-methylcyclopropyl)-4-oxo-1,2,3,4-tetrahydroquinazoline-6-sulfonamide], the half-inhibitory concentration (IC50) in test [1] and in test [2] was less than 30 nM throughout. In addition, the GI50 in test [4] is less than 500 nM.
With `CO/N=c1\[nH]c2c(N3CCN(C(=O)N(C)CC(F)(F)F)[C@H](C)C3)cc(S(=O)(=O)NC3(C)CC3)cc2c(=O)n1Cc1cnn(C)c1` [Example 37, (R,E)-4-(2-(methoxyimino)-3-((1-methyl-1H-pyrazol-4-yl)methyl)-6-(N-(1-methylcyclopropyl)sulfamoyl)-4-oxo-1,2,3,4-tetrahydroquinazolin-8-yl)-N,2-dimethyl-N-(2,2,2-trifluoroethyl)piperazine-1-carboxamide], the 50% inhibitory concentration (IC50) in test [1] and in test [2] was less than 30 nM throughout. The concentration for 50% growth inhibition (GI50) in test [4] is less than 500 nM.
With `CO/N=c1\[nH]c2c(N3CCN(C(=O)C4(C)CCC4)[C@H](C)C3)cc(S(=O)(=O)NC3(C)CC3)cc2c(=O)n1Cc1cnn(C)c1` [Example 38, (R,E)-2-(methoxyimino)-3-((1-methyl-1H-pyrazol-4-yl)methyl)-8-(3-methyl-4-(1-methylcyclobutane-1-carbonyl)piperazin-1-yl)-N-(1-methylcyclopropyl)-4-oxo-1,2,3,4-tetrahydroquinazoline-6-sulfonamide], the IC50 in test [1] and in test [2] was less than 30 nM throughout. Also, the GI50 in test [4] is less than 500 nM.
With `CO/N=c1\[nH]c2c(N3CCN(C(=O)C4CCCC4)[C@H](C)C3)cc(S(=O)(=O)NC3(C)CC3)cc2c(=O)n1Cc1cnn(C)c1` [Example 39, (R,E)-8-(4-(cyclopentanecarbonyl)-3-methylpiperazin-1-yl)-2-(methoxyimino)-3-((1-methyl-1H-pyrazol-4-yl)methyl)-N-(1-methylcyclopropyl)-4-oxo-1,2,3,4-tetrahydroquinazoline-6-sulfonamide], the IC50 in test [1] and in test [2] was less than 30 nM throughout. Further, in test [4], the concentration for 50% growth inhibition (GI50) was less than 500 nM.
On to `CO/N=c1\[nH]c2c(N3CCN(C(=O)N4CCCC4)[C@H](C)C3)cc(S(=O)(=O)NC3(C)CC3)cc2c(=O)n1Cc1cnn(C)c1` [Example 40, (R,E)-2-(methoxyimino)-3-((1-methyl-1H-pyrazol-4-yl)methyl)-8-(3-methyl-4-(pyrrolidine-1-carbonyl)piperazin-1-yl)-N-(1-methylcyclopropyl)-4-oxo-1,2,3,4-tetrahydroquinazoline-6-sulfonamide], for which the IC50 in test [1] and in test [2] was less than 30 nM in each case. The GI50 in test [4] is less than 500 nM.
For the compound `CO/N=c1\[nH]c2c(N3CCN(C(=O)N(C)C)[C@H](C)C3)cc(S(=O)(=O)NC3(C)CC3)cc2c(=O)n1Cc1cnn(C)c1` [Example 41, (R,E)-4-(2-(methoxyimino)-3-((1-methyl-1H-pyrazol-4-yl)methyl)-6-(N-(1-methylcyclopropyl)sulfamoyl)-4-oxo-1,2,3,4-tetrahydroquinazolin-8-yl)-N,N,2-trimethylpiperazine-1-carboxamide], the IC50 in test [1] and in test [2] was less than 30 nM throughout. For the same compound, in test [4], the GI50 is less than 500 nM.

As a reminder, the IC50 is the concentration that inhibits the measured activity by half. Broadly, the GI50 is the concentration that inhibits growth by half.
